Measurements published in patent US20030162777A1, “Novel N-acylated heterocycles” (Recordati S.A., priority 2001, published 2003).

Each compound was assayed against T1, human 5HT1A-serotonergic receptor (Homo sapiens, UniProt P08908) (assay: Radioligand binding to recombinant 5-HT1A receptors). Conditions: [3H]8-OH-DPAT 1 nM, membranes of HeLa cells with human 5-HT1A receptor; Ki from IC50 by Cheng & Prusoff; read-out: Binding affinity for 5HT1A receptors, Ki.
T1 construct: expressed in transfected cells; host or cells: HeLa (human cell line), stably transfected; cell membranes used
T1 sequence (P08908 1-422): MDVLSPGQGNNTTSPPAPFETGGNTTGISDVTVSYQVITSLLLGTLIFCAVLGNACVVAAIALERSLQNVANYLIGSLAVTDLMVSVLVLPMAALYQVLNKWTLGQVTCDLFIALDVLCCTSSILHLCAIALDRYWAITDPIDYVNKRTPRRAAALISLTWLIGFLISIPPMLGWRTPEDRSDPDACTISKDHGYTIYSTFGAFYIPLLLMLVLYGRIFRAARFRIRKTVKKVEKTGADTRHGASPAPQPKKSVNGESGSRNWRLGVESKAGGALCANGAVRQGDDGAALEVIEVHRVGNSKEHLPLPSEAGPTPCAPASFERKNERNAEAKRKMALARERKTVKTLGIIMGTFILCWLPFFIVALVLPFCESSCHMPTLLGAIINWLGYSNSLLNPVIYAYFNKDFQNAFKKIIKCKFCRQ
In short: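 Displacement of 1 nM [3H]8-OH-DPAT (30 min, 30 °C, Tris-HCl pH 7.4 with MgCl2 and pargyline) from recombinant human 5-HT1A in transfected HeLa membranes, stopped by filtration. Specific binding defined against 10 μM 5-HT; IC50 by nonlinear fitting, then Ki by Cheng–Prusoff.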

| SMILES | Ki [µM] |
| --- | --- |
| Cc1ccc(F)c(N2CCN(CC3CCc4ccccc4N3C(=O)C3CCCCC3)CC2)c1 (centres unmarked) [Example 35A12, 1-(1-Cyclohexanecarbonyl-1,2,3,4-tetrahydroquinoline-2-ylmethyl)-4-(2-fluoro-5-methylphenyl)piperazine] | 0.0095 |
| N#Cc1ccc(C(=O)N2c3ccccc3CCC2CN2CCN(c3cccc4[nH]ccc34)CC2)cc1 (centres unmarked) [Example 68A3, 1-[1-(4-Cyanobenzoyl)-1,2,3,4-tetrahydroquinoline-2-ylmethyl]-4-(4-indolyl)piperazine] | 0.0071 |
| O=C(C1CCCCC1)N1c2ccccc2CCC1CN1CCC(c2cccc(F)c2)CC1 (centres unmarked) [Example 72A39, 1-(1-Cyclohexanecarbonyl-1,2,3,4-tetrahydroquinolin-2-ylmethyl)-4-(3-fluorophenyl)piperidine] | 0.0391 |
| COc1cc(F)ccc1N1CCN(CC2CCc3cc(N)ccc3N2C(=O)C2CCCCC2)CC1 (centres unmarked) [Example 85, 1-(6-Amino-1-cyclohexanecarbonyl-1,2,3,4-tetrahydroquinoline-2-ylmethyl)-4-(4-fluoro-2-methoxyphenyl)piperazine] | 0.0412 |
| Cc1ccc(N2CCN(CC3CCc4ccccc4N3C(=O)C3CCCCC3)CC2)c2cc[nH]c12 (centres unmarked) [Example 62A5, 1-(1-Cyclohexanecarbonyl-1,2,3,4-tetrahydroquinoline-2-ylmethyl)-4-(7-methyl-4-indolyl)piperazine] | 0.0312 |
| O=C(Cc1ccsc1)N1c2ccccc2CCC1CN1CCN(c2cccc3[nH]ccc23)CC1 (centres unmarked) [Example 68A40, 1-(4-Indolyl)-4-[1-[2-(3-thienylacetyl)]-1,2,3,4-tetrahydroquinoline-2-ylmethyl]piperazine] | 0.0075 |
| CC(C)(C)OC(=O)n1cc(CC(=O)N2c3ccccc3CCC2CN2CCN(c3cccc4[nH]ccc34)CC2)c2ccccc21 (centres unmarked) [Example 71A2, 1-[1-[2-(1-tert-Butoxycarbonylindol-3-yl)acetyl]-1,2,3,4-tetrahydroquinoline-2-ylmethyl]-4-(4-indolyl]piperazine] | 0.092 |
| O=C(C1CCCCC1)N1c2ccccc2CCC1CN1CCC(c2cccc(Cl)c2Cl)CC1 (centres unmarked) [Example 72A51, 1-(1-Cyclohexanecarbonyl-1,2,3,4-tetrahydroquinolin-2-ylmethyl)-4-(2,3-dichlorophenyl)piperidine] | 0.015 |
| O=C(C1CCCCC1)N1c2ccccc2CCC1CN1CCN(c2cc(Cl)ccc2Cl)CC1 (centres unmarked) [Example 35A19, 1-(1-Cyclohexanecarbonyl-1,2,3,4-tetrahydroquinoline-2-ylmethyl)-4-(2,5-dichlorophenyl)piperazine] | 0.0052 |
| O=C(C1CCCCC1)N1c2ccccc2CCC1CN1CCN(C2CCCc3ccccc32)CC1 (centres unmarked) [Example 60A10, 1-(1-Cyclohexanecarbonyl-1,2,3,4-tetrahydroquinoline-2-ylmethyl)-4-[1-(1,2,3,4-tetrahydronaphthyl)]piperazine] | 0.0316 |
| CC(C)(C)OC(=O)NCC(=O)N1c2ccccc2CCC1CN1CCN(c2cccc3[nH]ccc23)CC1 (centres unmarked) [Example 71A, 1-[1-(2-tert-Butoxycarbonylamino)acetyl-1,2,3,4-tetrahydroquinoline-2-ylmethyl]-4-(4-indolyl)piperazine] | 0.0357 |
| O=C(Nc1ccc(F)cc1)N1c2ccccc2CCC1CN1CCN(c2cccc3[nH]ccc23)CC1 (centres unmarked) [Example 69A2, 1-[1-(4-Fluorophenylaminocarbonyl)-1,2,3,4-tetrahydroquinoline-2-ylmethyl)-4-(4-indolyl)piperazine] | 0.024 |
| O=C(C1CCCCC1)N1c2ccccc2CCC1CN1CCN(c2cccc(O)c2)CC1 (centres unmarked) [Example 72A17, 1-(1-Cyclohexanecarbonyl-1,2,3,4-tetrahydroquinolin-2-ylmethyl)-4-(3-hydroxyphenyl)piperazine] | 0.0385 |
| CC(C)OCCC(=O)N1c2ccccc2CCC1CN1CCN(c2cccc3[nH]ccc23)CC1 (centres unmarked) [Example 12, 1-[1-(3-Isopropoxypropionyl)-1,2,3,4-tetrahydroquinoline-2-ylmethyl]-4-(4-indolyl)piperazine] | 0.0475 |
| Cc1ccccc1C1CCN(CC2CCc3ccccc3N2C(=O)C2CCCCC2)CC1 (centres unmarked) [Example 72A56, 1-(1-Cyclohexanecarbonyl-1,2,3,4-tetrahydroquinolin-2-ylmethyl)-4-(2-methylphenyl)piperidine] | 0.0101 |
| COCCC(=O)N1c2ccccc2CCC1CN1CCN(c2cccc3[nH]ccc23)CC1 (centres unmarked) [Example 11, 1-[1-(3-Methoxypropionyl)-1,2,3,4-tetrahydroquinoline-2-ylmethyl]-4-(4-indolyl)piperazine] | 0.0408 |
| O=C(C1CCCCC1)N1c2ccccc2CCC1CN1CCN(c2ncccc2C(F)(F)F)CC1 (centres unmarked) [Example 72A6, 1-(1-Cyclohexanecarbonyl-1,2,3,4-tetrahydroquinolin-2-ylmethyl)-4-(3-trifluoromethylpyridin-2-yl)piperazine] | 0.0032 |
| O=C(Cc1cccs1)N1c2ccccc2CCC1CN1CCN(c2cccc3[nH]ccc23)CC1 (centres unmarked) [Example 68A39, 1-(4-Indolyl)-4-[1-[2-(2-thienylacetyl)]-1,2,3,4-tetrahydroquinoline-2-ylmethyl]piperazine] | 0.0068 |
| Cc1ccc(Cl)cc1N1CCN(CC2CCc3ccccc3N2C(=O)C2CCCCC2)CC1 (centres unmarked) [Example 72A29, 1-(5-Chloro-2-methylphenyl)-4-(1-cyclohexanecarbonyl-1,2,3,4-tetrahydroquinolin-2-ylmethyl)piperazine] | 0.0281 |
| CCn1ccc2c(N3CCN(CC4CCc5ccccc5N4C(=O)C4CCCCC4)CC3)cccc21 (centres unmarked) [Example 62A, 1-(1-Cyclohexanecarbonyl-1,2,3,4-tetrahydroquinoline-2-ylmethyl)-4-(1-ethyl-4-indolyl)piperazine] | 0.0434 |
| COc1cccc(C(=O)N2c3ccccc3CCC2CN2CCN(c3cccc4[nH]ccc34)CC2)c1 (centres unmarked) [Example 68A67, 1-(4-Indolyl)-4-[1-(3-methoxybenzoyl)-1,2,3,4-tetrahydroquinoline-2-ylmethyl]piperazine] | 0.0091 |
| COc1cc(F)ccc1N1CCN(CC2CCc3cccc(C)c3N2C(=O)C2CCCCC2)CC1 (centres unmarked) [Example 67, 1-(1-Cyclohexanecarbonyl-8-methyl-1,2,3,4-tetrahydroquinoline-2-ylmethyl)-4-(4-fluoro-2-methoxyphenyl)piperazine] | 0.0294 |
| COc1cc(F)ccc1N1CCN(CC2CCc3ccccc3N2C(=O)CC(C)(C)C)CC1 (centres unmarked) [Example 74A1, 1-(3,3-Dimethylbutanoyl-1,2,3,4-tetrahydroquinolin-2-ylmethyl)-4-(4-fluoro-2-methoxyhenyl)piperazine] | 0.002 |
| CC(C)(C)C(=O)N1c2ccccc2CCC1CN1CCN(c2cccc3[nH]ccc23)CC1 (centres unmarked) [Example 68A36, 1-[1-(2,2-Dimethylpropionyl)-1,2,3,4-tetrahydroquinoline-2-ylmethyl]-4-(4-indolyl)piperazine] | 0.0107 |
| Cc1oc(S(=O)(=O)N2CCOCC2)cc1C(=O)N1c2ccccc2CCC1CN1CCN(c2cccc3[nH]ccc23)CC1 (centres unmarked) [Example 68A56, 1-(4-Indolyl)-4-[1-(2-methyl-5-morpholin-4-ylsulfonylfuran-3-carbonyl)-1,2,3,4-tetrahydroquinoline-2-ylmethyl]piperazine] | 0.0268 |
| O=C(CC1CC1)N1c2ccccc2CCC1CN1CCN(c2cccc3c2OCCO3)CC1 (centres unmarked) [Example 76A1, 4-[1-(2-Cyclopropylacetyl)-1,2,3,4-tetrahydroquinolin-2-ylmethyl]-1-(2,3-dihydrobenzo[1,4]dioxin-5-yl)piperazine] | 0.0054 |
